Measurements reported in patent publication US20090257999A1, “Method of preventing contrast-induced nephropathy” (Inotek Pharmaceuticals Corporation, priority 2007, published 2009).

Test system: ICAM-1, Nitrotyrosine and PAR expression
Assay: Immunohistochemical localization of ICAM-1, nitrotyrosine and poly(ADP-ribose) in kidney, Example 1
Assay type: in vivo, rat
Conditions: diabetic rats + Iomeprol; metalloporphyrin A 1 mg/kg 60 min prior to Iomeprol, or NAC 10 mg/kg
Experimental: Experimental model for assessing the effects of Metalloporphyrin A on CIN: Diabetic (n=8) for group #'s 1-9 or wild-type rats (n=10) for group #'s 10 and 11 were treated with drug 60 min prior to contrast agent administration. At the “0” time point, Iomeprol was administered with ensuing drug intervention dosing every 12 hours for Metalloporphyrin A from 24-84 hours or every 24 hours for NAC from 24-72 hours. At the 96 hour time point, kidneys were harvested for histopathology, MPO and MDA measurements. From 0-96 hours, plasma samples from all animals per group were screened for urea, creatinine, fractional excretion of Na^+ and NGAL.
Rat kidneys fixed in 10% (wt/vol) neutral buffered paraformaldehyde and […] sections were prepared from paraffin-embedded tissues. After deparaffination, endogenous peroxidase was quenched using 0.3% (vol/vol) H2O2 in 60% methanol for 30 minutes. The sections were permeabilized using 0.1% (wt/vol) Triton X-100 in phosphate-buffered saline (PBS; 0.01 mol/L, pH 7.4) for 20 minutes. Nonspecific adsorption was minimized by incubating sections in 2% (vol/vol) normal goat serum in PBS for 20 minutes. Endogenous avidin- and biotin-binding sites were blocked by sequential incubation for 15 minutes with avidin (DBA, Milan, Italy) and biotin (DBA, Milan, Italy), respectively. The sections were then incubated overnight with primary antinitrotyrosine antibody (1:1000), anti-PAR antibody (1:500) and anti-ICAM-1 antibody (1:500). Separate sections were also incubated with control solutions consisting of PBS alone or a 1:500 dilution of nonspecific purified rabbit IgG (DBA). Specific labeling was detected using a biotin-conjugated goat antirabbit IgG (DBA) and avidin-biotin peroxidase (DBA). Samples were then viewed under a light microscope.

CC(=O)N[C@@H](CS)C(=O)O [NAC, N-acetylcysteine]
afforded protection: ICAM-1 staining/expression in kidney medulla | Nitrotyrosine staining/expression in kidney medulla | PAR staining/expression in kidney medulla
